For data set [1] the following is noted: background statement; cited from earlier work.
Data set [2] deals with ACE. The following applies: background statement; cited from earlier work.
In data set [3] the target is T1, angiotensin-I converting enzyme (ACE) (Rattus norvegicus, UniProt P47820).
T1 construct: The reaction was started by the addition of 40 μL rat lung extract; from tissue; host or cells: rat lung extract
T1 sequence (P47820 36-1313): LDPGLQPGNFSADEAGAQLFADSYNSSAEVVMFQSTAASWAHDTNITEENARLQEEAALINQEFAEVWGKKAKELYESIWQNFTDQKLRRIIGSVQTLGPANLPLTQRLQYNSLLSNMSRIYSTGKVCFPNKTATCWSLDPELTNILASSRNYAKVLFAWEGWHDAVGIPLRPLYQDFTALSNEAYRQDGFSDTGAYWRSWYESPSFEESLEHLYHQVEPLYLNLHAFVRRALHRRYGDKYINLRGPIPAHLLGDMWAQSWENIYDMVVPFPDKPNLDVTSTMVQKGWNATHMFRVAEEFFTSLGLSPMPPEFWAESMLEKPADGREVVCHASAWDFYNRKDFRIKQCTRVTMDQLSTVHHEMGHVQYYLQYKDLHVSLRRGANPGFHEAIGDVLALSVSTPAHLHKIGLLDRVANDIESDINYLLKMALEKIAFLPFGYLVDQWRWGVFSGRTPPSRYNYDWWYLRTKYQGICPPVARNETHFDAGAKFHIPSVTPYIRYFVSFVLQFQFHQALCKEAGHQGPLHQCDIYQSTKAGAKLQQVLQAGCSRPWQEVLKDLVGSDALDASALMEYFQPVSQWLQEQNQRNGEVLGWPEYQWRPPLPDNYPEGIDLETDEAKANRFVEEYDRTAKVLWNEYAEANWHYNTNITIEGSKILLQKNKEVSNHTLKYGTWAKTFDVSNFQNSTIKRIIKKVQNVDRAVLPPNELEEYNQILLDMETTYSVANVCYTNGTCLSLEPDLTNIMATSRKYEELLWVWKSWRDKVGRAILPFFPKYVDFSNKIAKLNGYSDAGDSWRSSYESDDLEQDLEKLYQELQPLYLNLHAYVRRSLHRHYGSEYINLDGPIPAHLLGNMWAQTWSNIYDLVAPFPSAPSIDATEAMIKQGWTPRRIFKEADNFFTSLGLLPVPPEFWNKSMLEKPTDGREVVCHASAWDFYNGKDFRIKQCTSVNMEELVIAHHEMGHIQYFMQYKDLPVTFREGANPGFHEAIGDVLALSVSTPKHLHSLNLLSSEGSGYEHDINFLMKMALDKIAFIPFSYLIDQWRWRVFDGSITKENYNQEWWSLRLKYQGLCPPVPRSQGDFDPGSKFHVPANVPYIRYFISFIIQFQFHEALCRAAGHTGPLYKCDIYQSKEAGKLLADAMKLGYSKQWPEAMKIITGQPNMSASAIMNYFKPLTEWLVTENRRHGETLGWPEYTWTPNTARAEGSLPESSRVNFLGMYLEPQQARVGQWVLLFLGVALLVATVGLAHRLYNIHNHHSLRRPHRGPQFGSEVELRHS
In words: In vitro angiotensin-I converting enzyme inhibitory activity, spectrophotometric assay with rat lung extract. The class given is biochemical. The following applies: for inhibition at 0.0002 µM: 0.2 nM; for inhibition at 0.0004 µM: 0.4 nM; for inhibition at 0.0006 µM: 0.6 nM; for inhibition at 0.0008 µM: 0.8 nM; for inhibition at 0.001 µM: 1 nM; for IC50: ACE inhibition, rat lung extract. As for the experimental part: This method is based on the cleavage of the substrate hippuryl-glycyl-glycine by ACE and subsequent reaction with trinitrobenzenesulfonic acid to form 2,4,6-trinitrophenyl-glycyl-glycine. The method relies on spectrophotometric determination of hippuric acid. It involves a colorimetric reaction of hippuric acid with benzene sulfonyl chloride.
The assay system consisted of 200 μL of substrate solution, water, and drug solution in a volume of 0.25 mL. The reaction was started by the addition of 40 μL rat lung extract. After 30 minutes of incubation at 37°C, the reaction was stopped by adding 2 mL of stop solution (1.195 g HEPES and 0.0465 g of EDTA were dissolved in 40 mL distilled water. The pH was adjusted to 9.0 with 1 mol/lit sodium hydroxide and diluted to 50 mL with distilled water). Then 0.5 mL distilled water and 1.0 mL colour reagent were added, mixed vigorously, left for 5 min, and centrifuged at 3000–4000 rpm for 10 minutes at room temperature to remove any precipitate. The corresponding enzyme inhibitors blanks were assayed in the same manner except for adding the stop solution before the lung extract. The absorbance of the yellow product of the reaction between liberated hippurate and cyanuric chloride was measured spectrophotometrically at 405 nm against distilled water as blank.Controls without drug were run simultaneously in all cases. “One inhibitory unit is the amount of inhibitor that suppressed the ACE activity by one unit.”

The mark [4] stands for this setting: read-out: Percent inhibition of ACE.

For `O=C(O)[C@@H]1C[C@@H](C2CCCCC2)CN1C(=O)CP(=O)(O)CCCCc1ccccc1` [Fosinoprilat], the Bioavailability entry in data set [1] is on record as “poor bioavailability”. In data set [2], the “Potency relative to other ACE inhibitors” value is given as “more potent than captopril but less potent than enalaprilat”.

With `CCC(=O)O[C@@H](O[P@](=O)(CCCCc1ccccc1)CC(=O)N1C[C@H](C2CCCCC2)C[C@H]1C(=O)O)C(C)C` [Fosinopril], the inhibition at 0.0001 µM in data set [3] (0.1 nM, read-out: Percent inhibition of ACE) came out at 44.1 ± 4.35%. For the same compound, in data set [3] (setting [4]), the inhibition at 0.0002 µM is 63 ± 6.01%, the inhibition at 0.0004 µM is 68.7 ± 3.99%, the inhibition at 0.0006 µM amounted to 73 ± 4.76% and the inhibition at 0.0008 µM worked out at 88.2 ± 5.2%. Moreover, in data set [3] (setting [4]), the inhibition at 0.001 µM amounted to 89.1 ± 3.82%. The IC50 in data set [3] amounted to 0.143 ± 0.012 nM.

Consider `C[C@H](N[C@@H](CCc1ccccc1)C(=O)O)C(=O)N1CCC[C@H]1C(=O)O` [enalaprilat], for which the Bioavailability result in data set [1] is “poor bioavailability”.

As to `O=C(O)C1Cc2ccccc2CN1C(=O)CP(=O)(O)CCCCc1ccccc1` (stereo not shown) [Analog A2], in data set [3] (0.01 nM, read-out: Percent inhibition of ACE), the inhibition at 10 pM is 44.7 ± 3.85%. Moreover, in data set [3] (0.02 nM, read-out: Percent inhibition of ACE), the inhibition at 20 pM is 53.2 ± 5.73%. Besides, in data set [3] (setting [4]), the inhibition at 0.0002 µM is 75.1 ± 4.66%, the inhibition at 0.0004 µM amounted to 77.8 ± 3.21%, the inhibition at 0.0006 µM was found to be 81.7 ± 6.09% and the inhibition at 0.0008 µM is 84 ± 5.11%. In data set [3] (setting [4]), the inhibition at 0.001 µM amounted to 84.5 ± 4.52%. The compound also came in with an IC50 in data set [3] of 0.017 ± 0.009 nM. For the same compound, the “ACE inhibition activity, in words” value in data set [3] (compared with other analogs and Fosinopril) was “highest ACE inhibition activity”.

The inhibition is the drop in the measured response relative to a control, in per cent. A word on the IC50: it is the concentration that inhibits the measured activity by half. A lower IC50 goes with inhibition by little substance.

The values are drawn from publication PMC4207403, “Docking Studies and Biological Activity of Fosinopril Analogs” (International Journal of Medicinal Chemistry, 2014).
